ChEMBL document CHEMBL1138196, “Antitrypanosomal activity of 5'-deoxy-5'-(iodomethylene)adenosine and related 6-N-cyclopropyladenosine analogues” (J Med Chem, 2006)
In brackets after ≈: the same amount, converted by molar mass.

Tested on: Vesicular stomatitis virus
Assay: Antiviral activity against VSV in BHK cells
Assay type: functional, organism-based

Work on Nc1ncnc2c1ncn2[C@@H]1O[C@H](/C=C/I)[C@@H](O)[C@H]1O yielded an IC50 of 2 mg/L (≈ 5.14 µM).

Tested on: Trypanosoma brucei
Assay: Antitrypanosomal activity against Trypanosoma brucei
Assay type: functional, organism-based

Going from Nc1ncnc2c1ncn2[C@@H]1O[C@H](CSCCO)[C@@H](O)[C@H]1O to CN(C/C=C\CN)C[C@H]1O[C@@H](n2cnc3c(N)ncnc32)[C@H](O)[C@@H]1O, the IC50 falls from 0.16 mg/L (≈ 0.489 µM) to 0.02 mg/L (≈ 0.0572 µM) (8-fold).

First: Nc1ncnc2c1ncn2[C@@H]1O[C@H](/C=C\I)[C@@H](O)[C@H]1O
Second: Nc1ncnc2c1ncn2[C@@H]1O[C@H](/C=C/I)[C@@H](O)[C@H]1O
The IC50 of the first is 5-fold higher: 45 mg/L (≈ 116 µM) for the first, 9 mg/L (≈ 23.1 µM) for the second.

Compared with CC(=O)OCCSC[C@H]1O[C@@H](n2cnc3c(N)ncnc32)[C@H](OC(C)=O)[C@@H]1OC(C)=O, Nc1ncnc2c1ncn2[C@@H]1O[C@](S)(CO)[C@@H](O)[C@H]1O is 120-fold higher in IC50: 0.12 mg/L (≈ 0.265 µM) for the first, 14 mg/L (≈ 46.8 µM) for the second.

Going from O[C@@H]1[C@H](O)[C@@H](/C=C/F)O[C@H]1n1cnc2c(NC3CC3)ncnc21 to O[C@@H]1[C@H](O)[C@@H](/C=C/I)O[C@H]1n1cnc2c(NC3CC3)ncnc21, the IC50 falls from 19 mg/L (≈ 59.1 µM) to 12 mg/L (≈ 28 µM) (1.6-fold).

N#C/N=C/[C@H]1O[C@@H](n2cnc3c(NC4CC4)ncnc32)[C@H](O)[C@@H]1O gave an IC50 of 19 mg/L (≈ 57.7 µM).
